Entries after “also recorded” stand apart in the source; their conditions may differ.
Assays:
[1] = biological target: T1, acidic pH binding sites (Mus musculus, UniProt P14824); assay: Specific binding of 125I-ligands to MEF cells at acidic pH; settings: MEF cells
T1 sequence (P14824 2-673): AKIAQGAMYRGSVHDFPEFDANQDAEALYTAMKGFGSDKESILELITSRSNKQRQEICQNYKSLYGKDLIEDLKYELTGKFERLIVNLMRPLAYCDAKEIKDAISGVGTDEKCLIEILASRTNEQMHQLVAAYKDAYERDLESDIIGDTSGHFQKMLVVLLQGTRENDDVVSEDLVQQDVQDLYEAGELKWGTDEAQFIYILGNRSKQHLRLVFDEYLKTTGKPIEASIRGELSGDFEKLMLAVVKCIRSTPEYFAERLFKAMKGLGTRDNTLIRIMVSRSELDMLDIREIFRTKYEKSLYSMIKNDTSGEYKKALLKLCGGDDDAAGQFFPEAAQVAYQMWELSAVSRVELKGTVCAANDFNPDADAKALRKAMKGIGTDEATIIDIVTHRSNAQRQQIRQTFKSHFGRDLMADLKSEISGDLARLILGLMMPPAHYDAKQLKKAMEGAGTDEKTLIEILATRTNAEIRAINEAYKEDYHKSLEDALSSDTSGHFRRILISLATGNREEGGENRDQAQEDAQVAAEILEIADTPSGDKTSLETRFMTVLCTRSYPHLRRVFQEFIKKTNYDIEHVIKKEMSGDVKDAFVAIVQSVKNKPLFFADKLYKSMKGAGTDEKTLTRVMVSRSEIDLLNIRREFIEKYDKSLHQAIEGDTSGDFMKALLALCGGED

[2] = biological target: T2, LRP-1 (Mus musculus, UniProt Q91ZX7); assay: 125I-α2M* binding to MEF cells at pH 7.4; settings: pH 7.4; read-out: IC50, inhibition of ^125I-α2M* binding to LRP-1
T2 construct: endogenous in cells; host or cells: MEF (mouse embryonic fibroblasts)

[3] = tested on: Mv1Lu cells; assay: Internalization and degradation of cell surface-bound 125I-TGF-β1 or 125I-α2M*, Mv1Lu cells; format: cell-based, mink; settings: 10 μM, pH 7.4, 1 hr at 37° C.
Method: After 1 hr at 37° C., the medium was collected and precipitated with 10% trichloroacetic acid (TCA). The TCA-soluble radioactive material in the medium represented the cellular degradation products of 125I-TGF-β1 or 125I-α2M*. The cells were then treated with trypsin (5 mg/ml), maintained for 20 min at 0° C. and centrifuged. The radioactivity in the supernate and cell pellets represented cell surface-bound and internalized 125I-TGF-β1 or 125I-α2M*, respectively. The experiments were performed in quadruplicate.
After 2.5 hr, cells were washed, then warmed to 37° C.

[4] = tested on: MEF cells; assay: Internalization and degradation of cell surface-bound 125I-ligand, MEF cells; format: cell-based, mouse; settings: for Cell surface-bound ligand internalized and degraded: MEF
[5] = tested on: cell surface α2M* receptors; settings: 30 μM, reversible; cited from earlier work
[6] = tested on: Mv1Lu cells; assay: [methyl-3H] thymidine incorporation (DNA synthesis), Mv1Lu cells; format: cell-based, mink; settings: Mv1Lu
[7] = tested on: PEA-C11 cells; assay: [methyl-3H] thymidine incorporation, PEA-C11 cells; format: cell-based, mink; settings: TGF-β1 20 pM
[8] = tested on: Mv1Lu cells; assay: Cell growth (cell number), Mv1Lu cells; format: cell-based, mink; settings: TGF-β1 20 pM, 4-day
Method: (§1) FIG. 6 depicts the effects of IGFBP-3 and TGF-β1 on DNA synthesis (A), cell growth (B) and PAI-1 expression (C) in Mv1Lu and PEA-C11 cells. (A,B) Cells were incubated with various concentrations of IGFBP-3 (a) or TGF-β1 (b) as indicated. DNA synthesis and cell growth were determined by measuring the [methyl-^3H] thymidine incorporation into cellular DNA after 18 hr incubation (A) and by counting cell number after a 4-day incubation (B), respectively. The [methyl-^3H] thymidine incorporation in cells treated without IGFBP-3 and TGF-β1 (29,170±1,657 and 59,947±7,692 cpm/well for Mv1Lu and PEA-C11 cells, respectively) were taken as 0% inhibition. […] Each data point is the mean±S.D. of quadruplicate determinations. […] Data are representative of eight similar experiments. (C) Cells were incubated with various concentrations of TGF-β1 as indicated. After 2 hr at 37° C., the PAI-1 expression was determined by Northern blot analysis. The expression of glyceraldehyde-3-phosphate dehydrogenase (G3PDH) was used as control. The relative levels of the transcripts were quantified by a Phospholmager. Data are representative of four similar experiments.
(§2) Cells were plated at a density of 1-2×10^4 cells/dish in DMEM containing 1% fetal calf serum. The cell number was counted every day or after a 3-day incubation using a hematocytometer. The assays were performed in quadruplicate.

[9] = tested on: PEA-C11 cells; assay: Cell growth (cell number), PEA-C11 cells; format: cell-based, mink; settings: TGF-β1 20 pM, PEA-C11, 4-day
Method: as §1, §2

[10] = tested on: MEF cells; assay: [methyl-3H] thymidine incorporation, MEF cells; format: cell-based, mouse; settings: TGF-β1 20 pM
Method: (§3) FIG. 7 depicts the effect of TGF-β1 on DNA synthesis (A), cell growth (B) and PAI-1 expression (C) in MEF and PEA-13 cells. (A) Cells were treated with various concentrations of TGF-β1 as indicated. DNA synthesis was determined by measuring [methyl-^3H] thymidine incorporation into cellular DNA. The [methyl-^3H] thymidine incorporation in cells treated without TGF-β1 (100,861±3,720 and 103,262±6,722 cpm/well for MEF and PEA-13 cells, respectively) was taken as 0% inhibition. The negative values of inhibition indicate mitogenic activity. […] Each datapoint is the mean±S.D. of quadruplicate determinations. […] Data are representative of six similar experiments. (B) Cells were treated with various concentrations of TGF-β1 as indicated. The cell number was counted after a 4 day incubation. […] The negative values of the inhibition indicate the growth stimulatory activity. Each datapoint is the mean±S.D. of quadruplicate determinations. […] Data are representative of four similar experiments. (C) Cells were treated with various concentrations of TGF-β1 as indicated. The PAI-1 expression in these cells was determined by Northern blot analysis. The expression of G3PDH was used as control. The relative levels of the transcripts were quantified by a PhosphoImager. Data are representative of four similar experiments. […]

[11] = tested on: PEA-13 cells; assay: [methyl-3H] thymidine incorporation, PEA-13 cells; format: cell-based, mouse; settings: TGF-β1 20 pM
Method: as §3

[12] = tested on: MEF cells; assay: Cell growth (cell number), MEF cells; format: cell-based, mouse; settings: TGF-β1 20 pM
Method: as §3, with “The expression of G3PDH was used as control.” left out, “PhosphoImager.” for “PhosphoImager. Data are representative of four similar experiments.”
(§4) Cells were plated at a density of 1-2×10^4 cells/dish in DMEM containing 1% fetal calf serum. The cell number was counted every day or after a 3-day incubation using a hematocytometer. […]

[13] = tested on: PEA-13 cells; assay: Cell growth (cell number), PEA-13 cells; format: cell-based, mouse; settings: TGF-β1 20 pM
Method: as §3, with “The expression of G3PDH was used as control.” left out, “PhosphoImager.” for “PhosphoImager. Data are representative of four similar experiments.”
as §4

[14] = tested on: H1299/LRP cells; assay: [methyl-3H] thymidine incorporation, H1299/LRP cells; format: cell-based, human; settings: various concentrations
[15] = tested on: H1299/vector cells; assay: [methyl-3H] thymidine incorporation, H1299/vector cells; format: cell-based, human; settings: various concentrations
[16] = tested on: H1299/LRP cells; assay: Cell growth (cell number), H1299/LRP cells; format: cell-based, human; settings: TGF-β1 20 pM or IGFBP-3 1 μg/ml, 3-day
[17] = tested on: H1299/vector cells; assay: Cell growth (cell number), H1299/vector cells; format: cell-based, human; settings: TGF-β1 20 pM or IGFBP-3 1 μg/ml, 3-day
[18] = tested on: IRS-2; assay: 32P metabolic labeling and immunoprecipitation of IRS-2, Mv1Lu cells; format: cell-based, mink; settings: Mv1Lu; IGFBPs 1 μg/ml; TGF-β1 20 pM
[19] = tested on: IRS-2; assay: 32P metabolic labeling and immunoprecipitation of IRS-2, DR26 cells; format: cell-based, mink
[20] = tested on: 32D cells expressing vector only; assay: [methyl-3H] thymidine incorporation, 32D cells transfected with vector only; format: cell-based, murine
[21] = tested on: 32D/IRS-1 cells; assay: [methyl-3H] thymidine incorporation, 32D/IRS-1 cells; format: cell-based, murine; settings: 32D cells expressing IRS-1
[22] = tested on: 32D/IR/IRS-2 cells; assay: [methyl-3H] thymidine incorporation, 32D/IR/IRS-2 cells; format: cell-based, murine; settings: 32D cells expressing IRS-2 and insulin receptor
[23] = biological target: acidic pH binding sites (Neogale vison, UniProt A0A8C7BSJ2); assay: Specific binding of 125I-ligands to Mv1Lu cells at acidic pH; design: species or system mink; settings: Mv1Lu cells; for pH of optimal/maximal binding: EGTA/BAPTA- or GST-RAP-sensitive binding, 0° C.
[24] = biological target: LRP-1/TβR-V (Homo sapiens, UniProt Q07954); settings: pH 7.4; read-out: Kd for (high affinity) binding to LRP-1/TβR-V; cited from earlier work
[25] = biological target: T1, acidic pH binding sites; assay: Specific binding of 125I-ligands to PEA-13 cells at acidic pH; design: endogenous in cells; host or cells: PEA-13 (LRP-1-deficient mouse embryonic fibroblasts); settings: PEA-13 cells
[26] = tested on: TβR-V purified from bovine liver plasma membranes; assay: 125I-IGFBP-3 / 125I-TGF-β1 affinity labeling of purified TβR-V; format: binding; settings: DSS, β1^25(41-65) 20 μM, RAP 10-40 μg/ml, α2M* 100 nM, lactoferrin 100 nM
[27] = tested on: PEA-13 cells; assay: Internalization and degradation of cell surface-bound 125I-α2M*, PEA-13 cells; format: cell-based, mouse; settings: PEA-13, pH 6.0, 1 hr at 37° C.

Sequence of acidic pH binding sites (Neogale vison, UniProt A0A8C7BSJ2) (A0A8C7BSJ2 entry or part of it): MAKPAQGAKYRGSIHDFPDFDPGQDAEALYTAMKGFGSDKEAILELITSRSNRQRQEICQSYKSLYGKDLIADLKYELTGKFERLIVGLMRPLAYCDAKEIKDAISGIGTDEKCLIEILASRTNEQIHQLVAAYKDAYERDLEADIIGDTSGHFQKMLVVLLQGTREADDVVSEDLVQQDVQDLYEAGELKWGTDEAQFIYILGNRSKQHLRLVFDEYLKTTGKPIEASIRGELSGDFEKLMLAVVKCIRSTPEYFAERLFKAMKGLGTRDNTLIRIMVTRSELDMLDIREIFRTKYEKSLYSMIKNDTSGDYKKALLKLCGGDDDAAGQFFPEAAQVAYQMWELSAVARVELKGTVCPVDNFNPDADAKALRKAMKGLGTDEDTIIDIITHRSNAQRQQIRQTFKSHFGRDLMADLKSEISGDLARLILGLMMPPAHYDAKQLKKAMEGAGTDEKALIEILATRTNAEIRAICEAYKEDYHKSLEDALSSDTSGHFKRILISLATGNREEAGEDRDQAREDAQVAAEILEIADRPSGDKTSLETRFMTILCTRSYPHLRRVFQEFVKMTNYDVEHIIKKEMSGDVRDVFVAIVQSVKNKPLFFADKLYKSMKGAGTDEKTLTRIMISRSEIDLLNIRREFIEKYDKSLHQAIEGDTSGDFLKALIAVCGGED
Sequence of LRP-1/TβR-V (Q07954 20-4544): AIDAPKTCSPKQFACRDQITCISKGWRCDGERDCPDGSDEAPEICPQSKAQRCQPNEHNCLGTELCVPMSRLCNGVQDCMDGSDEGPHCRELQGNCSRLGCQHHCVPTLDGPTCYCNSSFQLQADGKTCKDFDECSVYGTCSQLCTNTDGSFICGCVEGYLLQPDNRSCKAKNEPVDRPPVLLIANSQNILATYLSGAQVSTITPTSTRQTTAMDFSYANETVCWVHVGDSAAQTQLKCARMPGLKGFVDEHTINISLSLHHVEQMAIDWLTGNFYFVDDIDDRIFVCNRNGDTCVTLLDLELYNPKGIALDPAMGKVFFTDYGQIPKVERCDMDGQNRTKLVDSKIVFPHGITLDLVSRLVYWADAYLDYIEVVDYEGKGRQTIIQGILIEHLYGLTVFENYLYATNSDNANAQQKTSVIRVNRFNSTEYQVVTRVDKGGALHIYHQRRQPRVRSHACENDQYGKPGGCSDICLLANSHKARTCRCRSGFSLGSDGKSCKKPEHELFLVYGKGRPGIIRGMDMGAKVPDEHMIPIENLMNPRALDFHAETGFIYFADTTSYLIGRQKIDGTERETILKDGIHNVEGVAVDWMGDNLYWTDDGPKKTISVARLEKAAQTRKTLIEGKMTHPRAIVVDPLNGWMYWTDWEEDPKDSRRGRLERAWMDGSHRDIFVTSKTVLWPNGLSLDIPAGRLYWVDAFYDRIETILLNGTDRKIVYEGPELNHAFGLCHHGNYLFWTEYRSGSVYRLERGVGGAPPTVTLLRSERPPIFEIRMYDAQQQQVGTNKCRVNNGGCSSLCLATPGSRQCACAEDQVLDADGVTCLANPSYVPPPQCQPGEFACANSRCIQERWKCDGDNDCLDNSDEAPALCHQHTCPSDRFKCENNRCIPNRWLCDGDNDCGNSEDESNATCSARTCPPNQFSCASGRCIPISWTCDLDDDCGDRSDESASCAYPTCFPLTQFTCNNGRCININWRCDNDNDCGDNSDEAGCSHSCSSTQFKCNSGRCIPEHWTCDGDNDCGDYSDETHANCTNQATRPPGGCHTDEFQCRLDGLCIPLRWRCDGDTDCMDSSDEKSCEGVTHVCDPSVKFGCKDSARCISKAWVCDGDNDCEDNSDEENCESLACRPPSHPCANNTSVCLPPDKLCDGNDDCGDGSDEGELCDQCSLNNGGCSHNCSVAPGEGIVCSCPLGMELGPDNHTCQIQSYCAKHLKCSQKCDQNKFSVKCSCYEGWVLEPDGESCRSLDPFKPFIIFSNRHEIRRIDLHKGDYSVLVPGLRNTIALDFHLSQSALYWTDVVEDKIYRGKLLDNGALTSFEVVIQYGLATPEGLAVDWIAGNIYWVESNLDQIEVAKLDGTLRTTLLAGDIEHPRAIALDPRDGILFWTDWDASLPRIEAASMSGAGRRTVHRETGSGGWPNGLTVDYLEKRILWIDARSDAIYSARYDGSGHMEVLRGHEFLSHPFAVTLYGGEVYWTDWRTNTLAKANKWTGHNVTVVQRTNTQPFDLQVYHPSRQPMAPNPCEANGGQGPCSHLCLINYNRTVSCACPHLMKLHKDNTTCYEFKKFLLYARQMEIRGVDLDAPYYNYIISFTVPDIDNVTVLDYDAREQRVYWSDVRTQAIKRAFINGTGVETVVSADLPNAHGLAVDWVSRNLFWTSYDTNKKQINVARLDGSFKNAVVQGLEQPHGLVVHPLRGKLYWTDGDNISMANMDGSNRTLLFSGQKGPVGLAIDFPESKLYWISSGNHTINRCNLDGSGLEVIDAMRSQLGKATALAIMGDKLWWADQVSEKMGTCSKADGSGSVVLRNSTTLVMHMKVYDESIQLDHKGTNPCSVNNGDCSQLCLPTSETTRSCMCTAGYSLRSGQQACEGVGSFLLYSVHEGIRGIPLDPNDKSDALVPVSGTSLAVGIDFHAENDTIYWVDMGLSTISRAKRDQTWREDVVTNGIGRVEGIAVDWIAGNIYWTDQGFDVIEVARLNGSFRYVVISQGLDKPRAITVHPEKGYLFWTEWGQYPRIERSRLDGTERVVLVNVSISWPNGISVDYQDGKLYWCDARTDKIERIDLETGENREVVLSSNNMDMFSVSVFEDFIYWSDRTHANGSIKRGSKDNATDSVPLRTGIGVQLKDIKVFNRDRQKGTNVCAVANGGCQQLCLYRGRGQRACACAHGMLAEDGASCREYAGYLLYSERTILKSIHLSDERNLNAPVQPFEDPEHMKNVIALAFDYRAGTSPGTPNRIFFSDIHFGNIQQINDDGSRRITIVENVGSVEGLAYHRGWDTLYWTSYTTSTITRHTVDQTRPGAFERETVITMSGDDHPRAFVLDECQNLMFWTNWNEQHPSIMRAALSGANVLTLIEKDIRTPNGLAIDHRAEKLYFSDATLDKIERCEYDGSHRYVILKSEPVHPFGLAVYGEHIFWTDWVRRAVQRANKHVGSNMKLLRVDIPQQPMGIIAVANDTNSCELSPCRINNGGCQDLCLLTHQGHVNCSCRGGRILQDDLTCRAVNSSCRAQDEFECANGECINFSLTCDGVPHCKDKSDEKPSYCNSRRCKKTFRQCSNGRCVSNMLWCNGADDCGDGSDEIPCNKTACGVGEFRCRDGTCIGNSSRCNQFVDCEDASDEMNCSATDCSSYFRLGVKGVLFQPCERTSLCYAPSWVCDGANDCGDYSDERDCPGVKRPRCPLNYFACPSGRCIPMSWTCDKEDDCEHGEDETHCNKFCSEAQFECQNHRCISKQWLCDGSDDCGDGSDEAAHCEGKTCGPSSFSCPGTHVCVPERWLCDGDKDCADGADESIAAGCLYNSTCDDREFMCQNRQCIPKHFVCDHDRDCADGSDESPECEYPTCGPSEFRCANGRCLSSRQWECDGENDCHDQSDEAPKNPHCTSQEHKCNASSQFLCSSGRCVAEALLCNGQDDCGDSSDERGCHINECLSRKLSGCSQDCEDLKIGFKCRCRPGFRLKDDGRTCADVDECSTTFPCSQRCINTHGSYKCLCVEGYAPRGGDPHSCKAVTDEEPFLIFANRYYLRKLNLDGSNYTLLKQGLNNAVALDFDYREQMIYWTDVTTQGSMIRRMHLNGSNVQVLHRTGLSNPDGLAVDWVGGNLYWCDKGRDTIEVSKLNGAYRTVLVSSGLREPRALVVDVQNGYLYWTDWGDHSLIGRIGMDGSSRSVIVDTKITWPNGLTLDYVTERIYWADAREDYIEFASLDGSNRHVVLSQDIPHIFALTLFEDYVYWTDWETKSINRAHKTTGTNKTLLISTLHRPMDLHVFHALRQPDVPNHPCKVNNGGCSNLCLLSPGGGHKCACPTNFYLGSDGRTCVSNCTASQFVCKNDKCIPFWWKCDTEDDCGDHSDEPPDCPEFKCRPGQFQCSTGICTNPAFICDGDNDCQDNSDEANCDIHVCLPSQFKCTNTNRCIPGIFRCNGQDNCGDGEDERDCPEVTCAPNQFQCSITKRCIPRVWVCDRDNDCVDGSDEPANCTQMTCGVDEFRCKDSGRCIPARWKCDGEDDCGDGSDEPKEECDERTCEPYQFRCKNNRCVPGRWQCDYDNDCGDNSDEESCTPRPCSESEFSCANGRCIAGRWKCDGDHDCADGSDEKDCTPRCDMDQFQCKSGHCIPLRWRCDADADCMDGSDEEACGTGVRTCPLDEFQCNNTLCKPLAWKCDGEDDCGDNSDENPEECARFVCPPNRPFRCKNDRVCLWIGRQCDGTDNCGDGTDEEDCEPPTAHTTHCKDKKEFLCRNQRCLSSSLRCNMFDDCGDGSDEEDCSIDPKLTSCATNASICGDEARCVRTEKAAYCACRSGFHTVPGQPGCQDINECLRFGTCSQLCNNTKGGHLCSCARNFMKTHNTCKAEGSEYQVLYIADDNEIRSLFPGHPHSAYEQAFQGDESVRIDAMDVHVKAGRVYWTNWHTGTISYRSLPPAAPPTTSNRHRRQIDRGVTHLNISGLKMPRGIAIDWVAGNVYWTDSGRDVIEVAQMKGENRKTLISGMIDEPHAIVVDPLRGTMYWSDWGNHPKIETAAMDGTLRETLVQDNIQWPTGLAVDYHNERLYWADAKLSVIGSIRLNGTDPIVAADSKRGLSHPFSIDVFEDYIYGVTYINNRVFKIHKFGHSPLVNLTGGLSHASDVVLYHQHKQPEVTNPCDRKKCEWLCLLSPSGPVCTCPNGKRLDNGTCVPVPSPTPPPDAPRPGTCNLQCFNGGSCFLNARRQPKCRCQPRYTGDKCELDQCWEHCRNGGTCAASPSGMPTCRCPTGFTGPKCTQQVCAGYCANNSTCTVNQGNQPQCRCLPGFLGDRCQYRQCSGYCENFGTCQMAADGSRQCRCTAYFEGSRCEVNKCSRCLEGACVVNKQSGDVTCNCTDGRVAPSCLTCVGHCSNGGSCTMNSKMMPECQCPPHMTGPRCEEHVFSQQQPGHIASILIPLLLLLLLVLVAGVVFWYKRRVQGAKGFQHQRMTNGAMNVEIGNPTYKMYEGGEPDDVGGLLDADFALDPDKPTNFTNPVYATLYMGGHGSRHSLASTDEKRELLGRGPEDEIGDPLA

Molecule: CN1CCN(CCCN2c3ccccc3Sc3ccc(C(F)(F)F)cc32)CC1 [trifluoperazine, reference compound]
- Inhibition of ^125I-α2M* binding to cells ([1]; pH 5.5, verapamil and W-5 at 100 μM): most potent inhibitors
- IC50 [2]: 25 to 30 µM
- Degradation of cell surface-bound ^125I-TGF-β1 or ^125I-α2M* [3]: completely blocked; also recorded: completely inhibits
- Degradation of cell surface-bound ^125I-α2M* or ^125I-TGF-β1 ([4]; MEF cells, pH 7.4): trifluoperazine-inhibitable degradation
- Depletion of cell surface α2M* receptors [5]: ~50%

Molecule: TGF-β1: human transforming growth factor-β1
- Inhibition of DNA synthesis ([6]; TGF-β1 0.5 pM): ~75%
- Inhibition of DNA synthesis ([6]; TGF-β1 20 pM): 90-100%
- Inhibition of DNA synthesis [7]: ~70%
- Inhibition of cell growth [8]: 90-100%
- Inhibition of cell growth [9]: ~70%
- Inhibition of DNA synthesis [10]: 30-40%
- Stimulation of DNA synthesis [11]: ≤ 20%
- Inhibition of cell growth [12]: 30-40%
- Stimulation of cell growth [13]: ≤ 20%
- Effect on DNA synthesis [14]: inhibited
- Effect on DNA synthesis [15]: acted as mitogens or growth stimulators
- Effect on cell growth [16]: inhibited
- Effect on cell growth [17]: acted as mitogens or growth stimulators
- Induction of specific dephosphorylation (mobility change) of 32P-labeled IRS-2 [18]: inability
- 32P-labeled phosphorylation of IRS-2 ([19]; TGF-β1 alone): capable of stimulating
- Dephosphorylation of IRS-2 ([19]; TGF-β1 up to 400 pM): did not induce dephosphorylation
- Inhibition of DNA synthesis [20]: minimally or not at all
- Growth inhibitory response (DNA synthesis) [21]: potent growth inhibitory response
- Growth inhibitory response (DNA synthesis) [22]: potent growth inhibitory response
- pH of optimal/maximal binding [23]: 5
- pH of maximal binding [1]: 5
- Kd [24]: 0.05 to 0.4 nM
- pH of maximal binding [25]: 5

Molecule: α2M*: α2M activated by methylamine
- ^125I-TGF-β1 binding to purified TβR-V ([26]; 0.1 nM 125I-TGF-β1, […] 0° C.): blocked
- ^125I-IGFBP-3 binding to purified TβR-V ([26]; 10 nM 125I-IGFBP-3, […] 0° C.): did not inhibit
- Number of binding sites (Scatchard plot) ([23]; pH 5): ~1×10^6 sites/cell
- Saturating concentration of binding ([23]; pH 5): ~120 nM
- Kd ([23]; pH 5, read-out: Apparent Kd (Scatchard plot)): ~51 nM
- pH of optimal/maximal binding [23]: 5
- pH of maximal binding [1]: 5
- Cell surface-bound ligand internalized and degraded ([4]; pH 6.0, 1 hr at 37° C.): ~70%
- Cell surface-bound ligand internalized and degraded ([4]; pH 7.4, 1 hr): more than 90%
- Cell surface-bound ligand internalized and degraded [27]: ~70%
- Kd [24]: ~0.075 nM
- pH of maximal binding [25]: 5
- IC50 ([25]; acidic pH, read-out: IC50, inhibition of ^125I-α2M* binding): ~120 nM

Reference: patent publication US7741283B2, “Compositions and methods for inhibiting cell proliferation” (St. Louis University, priority 2003, dated 2010)
